We go through 13 compounds from paper PMC12155096 (International Journal of Molecular Sciences, 2025).

The structures appear in SMILES notation. Counter-ions that a name gives are not always drawn. Like-named read-outs stand apart in the source and are kept apart here.

One series has as its target human CYP2C9 (Homo sapiens, UniProt P11712). The series is described as follows: biochemical.
Another series addresses T1, human CYP1A2 (Homo sapiens, UniProt P05177).
T1 sequence (P05177 1-516): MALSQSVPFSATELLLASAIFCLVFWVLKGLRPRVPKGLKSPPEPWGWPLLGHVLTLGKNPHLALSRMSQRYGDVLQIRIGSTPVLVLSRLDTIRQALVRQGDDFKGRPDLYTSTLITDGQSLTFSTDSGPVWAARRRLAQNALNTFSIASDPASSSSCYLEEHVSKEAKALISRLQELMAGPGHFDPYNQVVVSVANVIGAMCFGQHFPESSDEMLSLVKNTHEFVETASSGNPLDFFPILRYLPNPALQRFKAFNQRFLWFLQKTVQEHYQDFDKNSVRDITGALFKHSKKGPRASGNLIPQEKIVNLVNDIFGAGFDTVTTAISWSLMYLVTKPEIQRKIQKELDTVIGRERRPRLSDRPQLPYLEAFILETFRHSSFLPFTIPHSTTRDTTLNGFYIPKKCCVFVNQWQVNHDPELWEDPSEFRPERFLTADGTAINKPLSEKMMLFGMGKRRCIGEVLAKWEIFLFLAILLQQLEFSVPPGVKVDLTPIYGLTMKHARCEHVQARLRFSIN
The experiment in a line: biochemical.

A further series concerns the target human CYP2C19 (Homo sapiens, UniProt P33261). The series is described as follows: biochemical.
The target of a further series is human CYP2D6 (Homo sapiens, UniProt P10635).
For a further series, the target named is CYP3A4 (Homo sapiens, UniProt P08684). The experiment in a line: biochemical.
The mark [1] stands for this setting: CYP2C9 AC50 (half-maximal activity concentration).
The mark [2] stands for this setting: CYP1A2 AC50 (half-maximal activity concentration).
Setting [3] is: CYP2C19 AC50 (half-maximal activity concentration).
Setting [4] is: CYP3A4 AC50 (half-maximal activity concentration).

Sequence of human CYP2C19 (P33261 whole entry): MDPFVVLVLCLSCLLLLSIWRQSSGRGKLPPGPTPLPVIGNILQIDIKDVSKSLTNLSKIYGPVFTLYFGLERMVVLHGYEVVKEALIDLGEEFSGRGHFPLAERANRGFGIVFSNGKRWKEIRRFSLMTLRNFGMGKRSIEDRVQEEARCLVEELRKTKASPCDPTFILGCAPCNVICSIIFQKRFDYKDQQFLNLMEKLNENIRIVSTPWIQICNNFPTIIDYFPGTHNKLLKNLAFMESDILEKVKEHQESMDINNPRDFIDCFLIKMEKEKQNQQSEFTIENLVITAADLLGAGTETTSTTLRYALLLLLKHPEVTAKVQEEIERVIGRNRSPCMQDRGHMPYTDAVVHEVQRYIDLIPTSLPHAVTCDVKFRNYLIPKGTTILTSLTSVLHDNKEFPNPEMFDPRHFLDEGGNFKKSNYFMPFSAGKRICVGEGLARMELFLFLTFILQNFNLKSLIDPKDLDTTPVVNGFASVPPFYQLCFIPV
Sequence of human CYP2C9 (P11712 whole entry): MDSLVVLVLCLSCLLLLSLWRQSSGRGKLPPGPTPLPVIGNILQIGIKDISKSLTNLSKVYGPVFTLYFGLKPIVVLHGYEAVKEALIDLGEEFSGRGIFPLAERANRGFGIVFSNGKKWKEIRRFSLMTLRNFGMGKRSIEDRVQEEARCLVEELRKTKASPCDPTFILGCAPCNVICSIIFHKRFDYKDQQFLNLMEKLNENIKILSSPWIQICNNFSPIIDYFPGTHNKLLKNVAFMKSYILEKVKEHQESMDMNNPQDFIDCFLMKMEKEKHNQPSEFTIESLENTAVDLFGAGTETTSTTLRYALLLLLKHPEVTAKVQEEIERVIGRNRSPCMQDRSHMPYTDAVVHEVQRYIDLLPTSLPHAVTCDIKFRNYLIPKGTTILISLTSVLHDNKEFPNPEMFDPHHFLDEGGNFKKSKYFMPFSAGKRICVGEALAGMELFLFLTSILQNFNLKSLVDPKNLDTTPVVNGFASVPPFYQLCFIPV
Sequence of CYP3A4 (P08684 whole entry): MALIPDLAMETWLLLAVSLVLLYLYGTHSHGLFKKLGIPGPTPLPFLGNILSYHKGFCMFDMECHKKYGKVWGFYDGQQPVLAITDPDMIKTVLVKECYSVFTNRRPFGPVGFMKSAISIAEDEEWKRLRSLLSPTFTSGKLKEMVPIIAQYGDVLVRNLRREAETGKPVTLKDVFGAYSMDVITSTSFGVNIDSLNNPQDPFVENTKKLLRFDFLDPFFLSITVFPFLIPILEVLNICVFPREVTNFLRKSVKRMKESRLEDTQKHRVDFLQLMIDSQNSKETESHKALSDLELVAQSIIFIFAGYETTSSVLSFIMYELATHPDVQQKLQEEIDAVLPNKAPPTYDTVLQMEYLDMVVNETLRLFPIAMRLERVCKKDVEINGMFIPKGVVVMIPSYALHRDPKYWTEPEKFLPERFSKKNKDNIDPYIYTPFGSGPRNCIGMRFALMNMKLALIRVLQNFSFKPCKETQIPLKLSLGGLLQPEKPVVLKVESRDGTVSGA
Sequence of human CYP2D6 (P10635 whole entry): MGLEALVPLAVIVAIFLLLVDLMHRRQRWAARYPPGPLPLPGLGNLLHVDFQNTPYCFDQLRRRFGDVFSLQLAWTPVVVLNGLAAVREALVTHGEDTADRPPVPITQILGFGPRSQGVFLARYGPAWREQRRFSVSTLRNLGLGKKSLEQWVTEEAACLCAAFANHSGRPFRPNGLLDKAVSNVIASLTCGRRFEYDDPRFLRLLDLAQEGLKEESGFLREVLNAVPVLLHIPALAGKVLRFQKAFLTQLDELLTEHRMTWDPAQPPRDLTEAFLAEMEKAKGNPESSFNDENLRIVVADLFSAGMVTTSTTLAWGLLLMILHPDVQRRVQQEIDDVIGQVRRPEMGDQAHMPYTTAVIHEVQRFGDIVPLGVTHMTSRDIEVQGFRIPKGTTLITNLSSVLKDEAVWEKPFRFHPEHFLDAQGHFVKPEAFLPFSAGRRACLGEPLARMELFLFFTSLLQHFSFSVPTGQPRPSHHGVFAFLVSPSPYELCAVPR

As for `Cc1c(C)c([N+](=O)[O-])c(C(C)(C)C)c([N+](=O)[O-])c1C`, the AC50 (as a rule, the concentration at which the activity in the assay is half-maximal) was 51.7 µM at human CYP2C9 (setting [1]), 17.5 µM at human CYP1A2 (setting [2]), 22.8 µM at human CYP2C19 (setting [3]) and 12.2 µM at CYP3A4 (setting [4]). For the same compound, the “CYP2D6 AC50 (half-maximal activity concentration)” value (shortened to “CYP2D6 AC50”) at human CYP2D6 is “Inactive”.
Turning to `O=C(Oc1ccccc1)c1ccccc1C(=O)Oc1ccccc1` [Diphenyl phthalate], the AC50 on human CYP2C9 (setting [1]) was determined as 13.7 µM; at human CYP1A2 (setting [2]), 4.94 µM; on human CYP2C19 (setting [3]), 14.2 µM; on CYP3A4 (setting [4]), 7.65 µM. Besides, on human CYP2D6, the “CYP2D6 AC50” value is recorded as “Inactive”.
The corresponding values for `O=C(OCCOCCOC(=O)c1ccccc1)c1ccccc1` [Diethylene glycol dibenzoate] are 12.7 µM, 8.29 µM, 34.1 µM, 11.4 µM and “Inactive”.
For `CC(COc1ccc(Oc2ccccc2)cc1)Oc1ccccn1` (centres unmarked) [Pyriproxyfen], the AC50 at human CYP2C9 (setting [1]) is 12 µM; at human CYP1A2 (setting [2]), 17.3 µM; on human CYP2C19 (setting [3]), 12.4 µM; on CYP3A4 (setting [4]) it was 29.7 µM. The “CYP2D6 AC50” value on human CYP2D6 is recorded as “Inactive”.
In the case of `O=[N+]([O-])c1cc(C2CCCCC2)c(O)c([N+](=O)[O-])c1` [Dinex], the AC50 on human CYP2C9 (setting [1]) is 8.27 µM; at human CYP1A2 (setting [2]), 71.1 µM; on human CYP2C19 (setting [3]), 39.8 µM; at CYP3A4 (setting [4]), 22.5 µM. Moreover, at human CYP2D6, the “CYP2D6 AC50” value is given as “Inconclusive inhibitor”.
The corresponding values for `CCOC(=O)C(C)Oc1ccc(Oc2nc3ccc(Cl)cc3o2)cc1` (centres unmarked) [Fenoxaprop-ethyl] are 44 µM, 23.9 µM, 53 µM, 28.4 µM and “Inconclusive inhibitor”.
The corresponding values for `COC(=O)CCCCCCCCC(=O)OC` [Dimethyl decanedioate] are 50.5 µM, 40.1 µM, 64.5 µM, 38.8 µM and “Inactive”.
Regarding `CSc1nc(NC(C)C)nc(NC(C)C)n1` [Prometryn], the AC50 at human CYP2C9 (setting [1]) came to 58.2 µM; on human CYP1A2 (setting [2]) it was 17.3 µM; on human CYP2C19 (setting [3]), 71 µM; at CYP3A4 (setting [4]), 29.1 µM. Further, the “CYP2D6 AC50” value on human CYP2D6 was “Inactive”.
Consider `CCOC(=O)COC(=O)c1ccccc1C(=O)OCC` [Ethyl phthalyl ethyl glycolate], for which the AC50 is 31.9 µM on human CYP2C9, 7.68 µM at human CYP1A2, 20.8 µM at human CYP2C19 and 47.4 µM at CYP3A4. For the same compound, the “CYP2D6 AC50” value at human CYP2D6 is listed as “Inactive”.
Consider `CC(C)OC(=O)COc1ccc(Cl)cc1Cl` [2,4-D isopropyl ester], for which the AC50 on human CYP2C9 (setting [1]) came to 35 µM; at human CYP1A2 (setting [2]), 13.6 µM; at human CYP2C19 (setting [3]), 15.5 µM; at CYP3A4 (setting [4]), 7.02 µM. The “CYP2D6 AC50” value at human CYP2D6 is recorded as “Inconclusive inhibitor”.
On to `CCCCCCCCOS(=O)(=O)O` [Sodium octyl sulfate], for which the AC50 at human CYP2C9 turned out to be 30.6 µM; at human CYP1A2, 68.4 µM; at human CYP2C19 it was 52.3 µM; on CYP3A4, 62.6 µM. The “CYP2D6 AC50” value on human CYP2D6 was “Inactive”.
`O=C(NC(=O)c1c(F)cccc1F)Nc1cc(Cl)c(OC(F)(F)C(F)C(F)(F)F)cc1Cl` (centres unmarked) [Lufenuron]: the AC50 at human CYP2C9 (setting [1]) is 11.3 µM; at human CYP1A2 (setting [2]), 35.7 µM; at human CYP2C19 (setting [3]), 10.9 µM; at CYP3A4 (setting [4]), 7.45 µM. In addition, the “CYP2D6 AC50” value at human CYP2D6 is “Inactive”.
The matching figures for `O=[N+]([O-])c1cc(C(F)(F)F)cc([N+](=O)[O-])c1Cl`: 18 µM, 64.7 µM, 56.7 µM, 49.2 µM and “Inconclusive inhibitor”.
